From patent publication US9174995B2, “Pyrrolotriazinone derivatives” (Merck Patent GmbH, priority 2012, dated 2015)

Key:
Assay type in all cases: biochemical
[1] = molecular target: T1, GST-tagged Tankyrase-1 (1023-1327 aa) (Homo sapiens, UniProt O95271); experiment: Tankyrase 1 autoparsylation assay (HTRF enzyme assay)
T1 construct: GST-tagged Tankyrase-1 (1023-1327 aa)
Protocol: Biochemical Activity Testing of Tankyrase 1 and 2: Autoparsylation Assay
The autoparsylation assay is run in two steps: the enzymatic reaction in which GST-tagged Tankyrase-1, resp Tankyrase-2 transferred biotinylated ADP-ribose to itself from biotinylated NAD as co-substrate and the detection reaction where a time resolved FRET between cryptate labelled anti-GST bound to the GST tag of the enzyme and Xlent® labelled-streptavidin bound the biotin-parsylation residue is analysed. The autoparsylation activity was detectable directly via the increase in HTRF signal.
The autoparsylation assay is performed as 384-well HTRF® (Cisbio, Codolet, France) assay format in Greiner low volume nb 384-well microtiter plates and is used for high throughput screen. 250 nM GST-tagged Tankyrase-1 (1023-1327 aa), respectively about 250 nM GST-tagged Tankyrase-2 (873-1166 aa) and 5 μM bio-NAD (Biolog, Life science Inst., Bremen, Germany) as co-substrate are incubated in a total volume of 5 μl (50 mM HEPES, 4 mM Mg-chloride, 0.05% Pluronic F-68, 1.4 mM DTT, 0.5% DMSO, pH 7.7) in the absence or presence of the test compound (10 dilution concentrations) for 90 min at 30° C. The reaction is stopped by the addition of 1 μl 50 mM EDTA solution. 2 μl of the detection solution (1.6 μM SA-Xlent® (Cisbio, Codolet, France), 7.4 nM Anti-GST-K® (Eu-labelled anti-GST, Cisbio, Codolet, France) in 50 mM HEPES, 800 mM KF, 0.1% BSA, 20 mM EDTA, 0.1% CHAPS, pH 7.0) are added. After 1 h incubation at room temperature the HTRF is measured with an Envision multimode reader (Perkin Elmer LAS Germany GmbH) at excitation wavelength 340 nm (laser mode) and emission wavelengths 615 nm and 665 nm. The ratio of the emission signals is determined. The full value used is the inhibitor-free reaction. The pharmacological zero value used is XAV-939 (Tocris) in a final concentration of 5 μM. The inhibitory values (IC50) are determined using either the program Symyx Assay Explorer® or Condosseo® from GeneData.

[2] = molecular target: T2, GST-tagged Tnks-1 (1023-1327 aa) (Homo sapiens, UniProt O95271); experiment: TNKS1 activity ELISA (autoparsylation assay)
T2 construct: GST-tagged Tnks-1 (1023-1327 aa, prepared in-house); made in house
T2 sequence (O95271 1023-1327): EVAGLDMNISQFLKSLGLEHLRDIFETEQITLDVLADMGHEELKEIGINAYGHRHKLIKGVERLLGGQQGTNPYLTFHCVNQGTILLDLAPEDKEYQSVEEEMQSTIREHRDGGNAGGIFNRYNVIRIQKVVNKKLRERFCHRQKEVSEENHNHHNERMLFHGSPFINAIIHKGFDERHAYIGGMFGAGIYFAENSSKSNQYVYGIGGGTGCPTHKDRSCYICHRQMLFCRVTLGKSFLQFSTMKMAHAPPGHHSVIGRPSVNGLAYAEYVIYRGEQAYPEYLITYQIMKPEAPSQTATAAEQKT
Protocol: (§1) Description of the TNKS1 and TNKS2 ELISA Assay
(§2) Biochemical Activity Testing of TNKS 1 and 2: Activity ELISA (Autoparsylation Assay)
(§3) For analysis of autoparsylation activity of TNKS 1 and 2 an activity ELISA is performed: In the first step GST tagged TNKS is captured on a Glutathione coated plate. Then the activity assay with biotinylated NAD is performed in the absence/presence of the compounds. During the enzymatic reaction GST tagged TNKS transfers biotinylated ADP-ribose to itself from biotinylated NAD as co-substrate. For the detection streptavidin-HRP conjugate is added that binds to the biotinylated TNKS and is thereby captured to the plates. The amount of biotinylated resp. autoparsylated TNKS is detected with a luminescence substrate for HRP. The level of the luminescence signal correlats directly with the amount of autoparsylated TNKS and therefore with activity of TNKS.
(§4) The activity ELISA is performed in 384 well Glutathione coated microtiter plates (Express capture Glutathione coated plate, Biocat, Heidelberg, Germany). The plates are pre-equilibrated with PBS. Then the plates are incubated with 50 μl 20 ng/well GST-tagged Tnks-1 (1023-1327 aa, prepared in-house), respectively GST-tagged Tnks-2 (873-1166 aa, prepared in-house) in assay buffer (50 mM HEPES, 4 mM Mg-chloride, 0.05% Pluronic F-68, 2 mM DTT, pH 7.7) overnight at 4° C. The plates are washed 3 times with PBS-Tween-20. The wells are blocked by incubation at room temperature for 20 minutes with 50 μl blocking buffer (PBS, 0.05% Tween-20, 0.5% BSA). Afterwards the plates are washed 3 times with PBS-Tween-20. The enzymatic reaction is performed in 50 μl reaction solution (50 mM HEPES, 4 mM Mg-chloride, 0.05% Pluronic F-68, 1.4 mM DTT, 0.5% DMSO, pH 7.7) with 10 μM bio-NAD (Biolog, Life science Inst., Bremen, Germany) as co-substrate in the absence or presence of the test compound (10 dilution concentrations) for 1 hour at 30° C. The reaction is stopped by 3 times washing with PBS-Tween-20. For the detection 50 μl of 20 ng/μl Streptavidin, HRP conjugate (MoBiTec, Göttingen, Germany) in PBS/0.05%Tween-20/0.01%BSA are added and the plates are incubated for 30 minutes at room temperature. After three times washing with PBS-Tween-20 50 μl of SuperSignal ELISA Femto Maximum sensitivity substrate solution (ThermoFisherScientific (Pierce), Bonn, Germany) are added. Following a 1 minute incubation at room temperature luminescence signals are measured with an Envision multimode reader (Perkin Elmer LAS Germany GmbH) at 700 nm. The full value used is the inhibitor-free reaction. The pharmacological zero value used is XAV-939 (Tocris) in a final concentration of 5 μM. The inhibitory values (IC50) are determined using either the program Symyx Assay Explorer® or Condosseo® from GeneData.

[3] = molecular target: T3, GST-tagged Tnks-2 (873-1166 aa) (Homo sapiens, UniProt Q9H2K2); experiment: TNKS2 activity ELISA (autoparsylation assay)
T3 construct: GST-tagged Tnks-2 (873-1166 aa, prepared in-house); made in house
T3 sequence (Q9H2K2 873-1166): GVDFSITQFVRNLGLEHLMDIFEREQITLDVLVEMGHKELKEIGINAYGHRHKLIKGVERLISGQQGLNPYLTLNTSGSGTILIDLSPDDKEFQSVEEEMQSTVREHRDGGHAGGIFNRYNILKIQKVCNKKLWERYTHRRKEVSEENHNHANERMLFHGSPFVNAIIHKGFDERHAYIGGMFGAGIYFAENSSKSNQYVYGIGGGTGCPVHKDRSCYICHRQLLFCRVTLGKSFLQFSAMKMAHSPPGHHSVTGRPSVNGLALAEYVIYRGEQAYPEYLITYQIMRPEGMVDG
Protocol: as §1, §2, §3, §4

Measured: IC50

T1 sequence (O95271 1023-1327): as the sequence (O95271 1023-1327) above

CC(C)(O)c1ccc(-c2nn3cccc3c(=O)[nH]2)cc1 [Compound A5, 2-[4-(1-hydroxy-1-methyl-ethyl)-phenyl]-3H-pyrrolo[2,1-f][1,2,4]triazin-4-one]
< 300 nM: all assays above

Cn1cc(-c2ccc(-c3nn4cccc4c(=O)[nH]3)cc2)cn1 [Compound A7, 2-[4-(1-methyl-1H-pyrazol-4-yl)-phenyl]-3H-pyrrolo[2,1-f][1,2,4]triazin-4-one]
< 300 nM: all assays above

Cc1cc2c(=O)[nH]c(-c3ccc(C(C)(C)O)cc3)nn2c1 [Compound A11, 2-[4-(1-hydroxy-1-methyl-ethyl)phenyl]-6-methyl-3H-pyrrolo[2,1-f][1,2,4]triazin-4-one]
< 300 nM: all assays above

CC(C)(O)c1ccc(-c2nn3cc(F)cc3c(=O)[nH]2)cc1 [Compound A12, 6-fluoro-2-[4-(1-hydroxy-1-methyl-ethyl)phenyl]-3H-pyrrolo[2,1-f][1,2,4]triazin-4-one]
< 300 nM: all assays above

Cc1cc2c(=O)[nH]c(-c3ccc(-c4cnn(C)c4)cc3)nn2c1 [Compound A13, 6-methyl-2-[4-(1-methylpyrazol-4-yl)phenyl]-3H-pyrrolo-[2,1-f][1,2,4]triazin-4-one]
< 300 nM: all assays above

CCC(O)(CC)c1ccc(-c2nn3cccc3c(=O)[nH]2)cc1 [Compound A14, 2-[4-(1-ethyl-1-hydroxy-propyl)-phenyl]-3H-pyrrolo[2,1-f][1,2,4]triazin-4-one]
< 300 nM: all assays above

CC(C)(OCCO)c1ccc(-c2nn3cccc3c(=O)[nH]2)cc1 [Compound A15, 2-{4-[1-(2-hydroxy-ethoxy)-1-methyl-ethyl]-phenyl}-3H-pyrrolo[2,1-f][1,2,4]triazin-4-one]
< 300 nM: all assays above

CC(C)(O)c1ccc(-c2nn3cc(Cl)cc3c(=O)[nH]2)cc1 [Compound A18, 6-chloro-2-[4-(1-hydroxy-1-methyl-ethyl)-phenyl]-3H-pyrrolo[2,1-f][1,2,4]triazin-4-one]
< 300 nM: all assays above

O=c1[nH]c(-c2ccc(C3(O)CCCC3)cc2)nn2cccc12 [Compound A21, 2-[4-(1-hydroxy-cyclopentyl)-phenyl]-3H-pyrrolo[2,1-f][1,2,4]-triazin-4-one]
< 300 nM: all assays above
